Results taken from patent US20230015949A1, “NEISSERIA TREATMENT USING CANNABINOIDS” (priority 2019, published 2023).
Like-named read-outs stand apart in the source and are kept apart here.

Tests used:
[1] = system: Neisseria gonorrhoeae; assay: Broth microdilution MIC assay, 30 isolates (Example 2); assay type: cell-based
Experimental: In this study, the in vitro spectrum of activity of CBD was determined against 30 isolates comprised of reference strains from the WHO, isolates from the CDC antibiotic resistance bank, and clinical isolates from the Micromyx (MMX) repository, with different resistance phenotypes. Assays were conducted following guidelines recommended by the Clinical and Laboratory Standards Institute (CLSI; 1, 2) with the exception that broth microdilution was used instead of agar dilution.
Stock solutions of all compounds were prepared on the day of testing using solvents recommended by CLSI. Stock solutions of all compounds were made at 101× the final testing concentration. CBD was supplied by Cerilliant (Round Rock, Tex.) as a 1 mg/mL methanolic solution which was stored at −20° C. after receipt. Prior to testing, using a 5 mL aliquot of the CBD methanolic solution, the methanol was dried off and the residual CBD was resuspended in 774 μL DMSO resulting in a 6.464 mg/mL solution.
The test organisms evaluated in this study consisted of Neisseria gonorrhoeae isolates from the Micromyx repository and reference isolates from the American Type Culture Collection (ATCC; Manassas, Va.), Centers for Disease Control and Prevention (CDC; Atlanta, Ga.) or the National Collection of Type Cultures (NCTC; Public Health England, Salisbury, UK). Upon initial receipt at Micromyx, the organisms were sub-cultured onto an appropriate agar medium.
(§1) Following incubation, colonies were harvested from these plates and cell suspensions prepared and frozen at −80° C. with a cryoprotectant. Prior to testing, N. gonorrhoeae isolates were streaked onto Chocolate Agar [Becton Dickinson, (BD), Sparks, Md.; Lot No. 922807]; Staphylococcus aureus ATCC 29213 tested for quality control (QC) purposes was streaked onto Trypticase Soy Agar with 5% Sheep Blood (TSA II; BD; Lot No. 9219399).
For N. gonorrhoeae, a modified medium described by the ATCC as capable of supporting the growth of N. gonorrhoeae (Neisseria peptone medium) was used for the broth microdilution MIC assay. This medium contained 15 g Oxoid Special Peptone (Lot No. 1280296; Oxoid, Hampshire, UK), 1 g corn starch (Lot No. AD-13344-14; Ward's Science; Rochester, N.Y.), 5 g NaCl (Lot No. 57897; VWR, Radnor, Pa.), 4 g K2HPO4 (Lot No. SLBT7061; Sigma), and 1 g KH2PO4 (Lot No. SLBC1921V; Sigma). After autoclaving, the medium was centrifuged at 5,000×g for 10 min, the supernatant was passed through a 0.45 μm filter, and IsoVitaleX supplement (Lot No. 8323954; BD) was added at 1% (v/v).
(§2) MIC values were determined using a broth microdilution procedure described by CLSI (1, 2). Automated liquid handlers (Multidrop 384, Labsystems, Helsinki, Finland; Biomek 2000 and Biomek FX, Beckman Coulter, Fullerton Calif.) were used to conduct serial dilutions and liquid transfers.
(§3) To prepare the drug mother plates, which would provide the serial drug dilutions for the replicate daughter plates, the wells of columns 2 through 12 of standard 96-well microdilution plates (Costar 3795) were filled with 150 μl of the designated diluent for each row of drug. The test articles and comparator compounds (300 μl at 100× the highest concentration to be tested) were dispensed into the appropriate wells in column 1. The Biomek 2000 was then used to make 2-fold serial dilutions in the mother plates from column 1 through column 11. The wells of column 12 contained no drug and served as the organism growth control wells for the assay.
(§4) The daughter plates were loaded with 190 μL per well of the appropriate test medium for the tested organism using the Multidrop 384. The daughter plates were completed on the Biomek FX instrument which transferred 2 μL of drug solution from each well of a mother plate to the corresponding well of each daughter plate in a single step. Daughter plates for the testing of anaerobes were allowed to pre-reduce in the Bactron II anaerobe chamber for 2 hr prior to inoculation.

[2] = system: Staphylococcus aureus ATCC 29213; assay: Broth microdilution MIC assay, quality control strain (Example 2); assay type: cell-based; details: ATCC29213, S. aureus ATCC 29213 (QC), CAMHB
Experimental: as §1
Cation-adjusted Mueller Hinton broth (CAMHB; BD; Lot No. 9019592) was used for MIC testing of S. aureus ATCC 29213 for QC purposes.
as §2, §3, §4
A standardized inoculum of each test organism was prepared per CLSI methods (1, 2). The inoculum for each organism was dispensed into sterile reservoirs divided by length (Beckman Coulter), and the Biomek 2000 was used to inoculate the plates. Daughter plates were placed on the Biomek 2000 work surface in reverse orientation so that inoculation took place from low to high drug concentration. Anaerobic organisms were inoculated by hand in the Bactron II anaerobic chamber. Bacterial plates were then inoculated with 10 μL of the inoculum resulting in a final cell density of approximately 5×10^5 CFU/mL.
Plates were stacked 3 to 4 high, covered with a lid on the top plate and placed in plastic bags. […] The MIC was read and recorded as the lowest concentration of drug that inhibited visible growth of the organism.

[3] = 30 isolates of N. gonorrhoeae, broth microdilution, MIC distribution
[4] = 30 isolates, broth dilution assay, MIC distribution (Table 6)

CC[C@H]1OC(=O)[C@H](C)[C@@H](O[C@H]2C[C@@](C)(OC)[C@@H](O)[C@H](C)O2)[C@H](C)[C@@H](O[C@@H]2O[C@H](C)C[C@H](N(C)C)[C@H]2O)[C@](C)(O)C[C@@H](C)CN(C)[C@H](C)[C@@H](O)[C@]1(C)O [AZI, azithromycin]
8 µg/mL: MIC ([1]; Neisseria gonorrhoeae, N. gonorrhoeae MMX 6921 (CIP-R), broth microdilution, read-out: MIC)
0: Number of isolates at MIC value 0.015 μg/mL [1, 3] | Number of isolates at MIC value 0.03 μg/mL [1, 3] | Number of isolates at MIC 0.08 μg mL^−1 [1, 4] | Number of isolates at MIC ≤0.004 μg mL^−1 [1, 4]
4: Number of isolates at MIC value >8 μg/mL [1, 3]
0.06 µg/mL: MIC ([1]; Neisseria gonorrhoeae, N. gonorrhoeae MMX 10447 (CIP-S), broth microdilution, read-out: MIC) | MIC ([1]; Neisseria gonorrhoeae, NCTC13477, N. gonorrhoeae NCTC 13477 (WHO F; CIP-S, AZI MIC […]), broth microdilution, read-out: MIC)
1 µg/mL: MIC ([1]; Neisseria gonorrhoeae, N. gonorrhoeae CDC 0165 (CIP-R, AZI MIC 1), broth microdilution, read-out: MIC)
> 8 µg/mL: MIC ([1]; Neisseria gonorrhoeae, N. gonorrhoeae CDC 0167 (CIP-S, AZI MIC 8), broth microdilution, read-out: MIC) | MIC ([1]; Neisseria gonorrhoeae, N. gonorrhoeae CDC 0175 (CIP-S, AZI MIC 16), broth microdilution, read-out: MIC) | MIC ([1]; Neisseria gonorrhoeae, N. gonorrhoeae CDC 0181 (CIP-S, AZI MIC 256), broth microdilution, read-out: MIC) | MIC ([1]; Neisseria gonorrhoeae, NCTC13818, N. gonorrhoeae NCTC 13818 (WHO V; CIP-R, AZI MIC >256), broth microdilution, read-out: MIC) | MIC90 ([1]; Neisseria gonorrhoeae, 30 isolates of N. gonorrhoeae, broth microdilution, read-out: MIC90)
>8 µg/mL: MIC90 ([1]; 30 isolates of N. gonorrhoeae, broth microdilution)
1: Number of isolates at MIC value 1 μg/mL [1, 3] | Number of isolates at MIC value 4 μg/mL [1, 3] | Number of isolates at MIC value 8 μg/mL [1, 3]
0.12 µg/mL: MIC ([1]; Neisseria gonorrhoeae, N. gonorrhoeae MMX 10410 (CIP-S), broth microdilution, read-out: MIC) | MIC ([1]; Neisseria gonorrhoeae, N. gonorrhoeae MMX 10450 (CIP-S), broth microdilution, read-out: MIC) | MIC ([1]; Neisseria gonorrhoeae, N. gonorrhoeae MMX 10452 (CIP-R), broth microdilution, read-out: MIC) | MIC ([1]; Neisseria gonorrhoeae, N. gonorrhoeae MMX 10454 (CIP-R), broth microdilution, read-out: MIC) | MIC ([1]; Neisseria gonorrhoeae, NCTC13481, N. gonorrhoeae NCTC 13481 (WHO M; CIP-R, AZI MIC […]), broth microdilution, read-out: MIC) | MIC ([1]; Neisseria gonorrhoeae, NCTC13482, N. gonorrhoeae NCTC 13482 (WHO N; CIP-R, AZI MIC […]), broth microdilution, read-out: MIC)
4 µg/mL: MIC ([1]; Neisseria gonorrhoeae, NCTC13484, N. gonorrhoeae NCTC 13484 (WHO P; CIP-S, AZI MIC 4), broth microdilution, read-out: MIC)
2: Number of isolates at MIC value 0.06 μg/mL [1, 3] | Number of isolates at MIC value 0.5 μg/mL [1, 3] | Number of isolates at MIC value 2 μg/mL [1, 3]
0.25 µg/mL: MIC [1] | MIC ([1]; Neisseria gonorrhoeae, ATCC49226, N. gonorrhoeae ATCC 49226 (QC), broth microdilution, read-out: MIC) | MIC ([1]; Neisseria gonorrhoeae, N. gonorrhoeae CDC 0172 (CIP-R, AZI MIC 0.5), broth microdilution, read-out: MIC) | MIC ([1]; Neisseria gonorrhoeae, N. gonorrhoeae CDC 0194 (CRO-NS, CIP-S, AZI MIC 0.5), broth microdilution, read-out: MIC) | MIC ([1]; Neisseria gonorrhoeae, N. gonorrhoeae MMX 6938 (CIP-S), broth microdilution, read-out: MIC) | MIC ([1]; Neisseria gonorrhoeae, N. gonorrhoeae MMX 10409 (CIP-R), broth microdilution, read-out: MIC) | MIC ([1]; Neisseria gonorrhoeae, NCTC13478, N. gonorrhoeae NCTC 13478 (WHO G; CIP-I, AZI MIC […]), broth microdilution, read-out: MIC) | MIC ([1]; Neisseria gonorrhoeae, NCTC13479, N. gonorrhoeae NCTC 13479 (WHO K; CIP-R, AZI MIC […]), broth microdilution, read-out: MIC) | MIC ([1]; Neisseria gonorrhoeae, NCTC13480, N. gonorrhoeae NCTC 13480 (WHO L; CIP-R, AZI MIC 0.5), broth microdilution, read-out: MIC) | MIC ([1]; Neisseria gonorrhoeae, NCTC13483, N. gonorrhoeae NCTC 13483 (WHO O; CIP-S, AZI MIC […]), broth microdilution, read-out: MIC) | MIC ([1]; Neisseria gonorrhoeae, NCTC13819, N. gonorrhoeae NCTC 13819 (WHO W; CIP-R, AZI MIC 0.5), broth microdilution, read-out: MIC) | MIC ([1]; Neisseria gonorrhoeae, NCTC13820, N. gonorrhoeae NCTC 13820 (WHO X; CRO-NS, CIP-R, AZI MIC 0.5), broth microdilution, read-out: MIC) | MIC50 ([1]; Neisseria gonorrhoeae, 30 isolates of N. gonorrhoeae, broth microdilution, read-out: MIC50) | MIC ([1]; Neisseria gonorrhoeae, 30 isolates of N. gonorrhoeae, broth microdilution, read-out: MIC Mode)
2 µg/mL: MIC ([1]; Neisseria gonorrhoeae, N. gonorrhoeae CDC 0177 (CIP-S, AZI MIC 2), broth microdilution, read-out: MIC) | MIC ([1]; Neisseria gonorrhoeae, NCTC13817, N. gonorrhoeae NCTC 13817 (WHO U; CIP-S, AZI MIC 4), broth microdilution, read-out: MIC)
0.5 µg/mL: MIC ([1]; Neisseria gonorrhoeae, N. gonorrhoeae CDC 0166 (CIP-R, AZI MIC 1), broth microdilution, read-out: MIC) | MIC ([1]; Neisseria gonorrhoeae, NCTC13821, N. gonorrhoeae NCTC 13821 (WHO Y; CIP-R, AZI MIC 1), broth microdilution, read-out: MIC) | MIC [2]
